Results from patent publication US20260042764A1, “COMPOSITIONS AND METHODS FOR INHIBITION OF KRAS” (TheRas, Inc., priority 2022, published 2026).

How the values were obtained:
[1] = target: T1, Avi-KRAS G12D (1-169) GppNHp/RAF1 RBD-3xFLAG (52-151) (Homo sapiens, UniProt P01116, G12D); assay: Raf1-KRAS G12D-GppNHP disruption HTRF assay (Biological Example 1); format: binding; conditions: KRAS G12D, GppNHp-loaded; class symbols
T1 construct: Avi-KRAS G12D (1-169)
Method in brief: (§1)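 Compound disruption of KRAS-GppNHp/RAF1 RBD binding read by HTRF after two sequential 1 h room-temperature incubations (protein mix, then detection reagents), shaken at 700 rpm. Buffer Tris pH 7.5 with MgCl2, BSA, Tween and 10% DMSO; results given as percent activity relative to DMSO (100%).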

[2] = target: T2, Avi-KRAS G12R (1-169) GppNHp/RAF1 RBD-3xFLAG (52-151) (Homo sapiens, UniProt P01116, G12R); assay: Raf1-KRAS G12R-GppNHP disruption HTRF assay (Biological Example 1); format: binding; conditions: KRAS G12R, GppNHp-loaded; class symbols
T2 construct: Avi-KRAS G12R (1-169)
T2 sequence (P01116 1-169 isoform P01116-2 G12R): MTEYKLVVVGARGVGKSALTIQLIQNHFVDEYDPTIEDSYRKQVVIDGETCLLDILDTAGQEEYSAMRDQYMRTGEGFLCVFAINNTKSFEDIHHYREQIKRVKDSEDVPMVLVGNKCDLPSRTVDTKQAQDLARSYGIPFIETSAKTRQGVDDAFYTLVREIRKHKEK
Method in brief: as §1

[3] = target: T3, Avi-KRAS G12V (1-169) GppNHp/RAF1 RBD-3xFLAG (52-151) (Homo sapiens, UniProt P01116, G12V); assay: Raf1-KRAS G12V-GppNHP disruption HTRF assay (Biological Example 1); format: binding; conditions: KRAS G12V, GppNHp-loaded; class symbols
T3 construct: Avi-KRAS G12V (1-169)
T3 sequence (P01116 1-169 isoform P01116-2 G12V): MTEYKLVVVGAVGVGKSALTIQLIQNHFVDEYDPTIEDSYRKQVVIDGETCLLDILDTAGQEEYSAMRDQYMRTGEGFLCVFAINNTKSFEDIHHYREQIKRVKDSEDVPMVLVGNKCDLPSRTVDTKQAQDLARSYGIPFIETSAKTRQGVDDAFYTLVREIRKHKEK
Method in brief: as §1

[4] = target: T4, Avi-KRAS WT (1-169) GppNHp/RAF1 RBD-3xFLAG (52-151) (Homo sapiens, UniProt P01116); assay: Raf1-KRAS WT-GppNHP disruption HTRF assay (Biological Example 1); format: binding; conditions: KRAS WT, GppNHp-loaded; class symbols
T4 construct: Avi-KRAS WT (1-169)
T4 sequence (P01116 1-169 isoform P01116-2): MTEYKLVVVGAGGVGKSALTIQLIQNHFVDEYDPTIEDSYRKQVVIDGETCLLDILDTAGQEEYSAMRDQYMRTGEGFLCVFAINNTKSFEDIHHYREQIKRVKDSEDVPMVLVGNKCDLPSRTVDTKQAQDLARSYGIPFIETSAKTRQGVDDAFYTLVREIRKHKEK
Method in brief: as §1

GP2d cells (KRAS G12D) = assay: Cell-based pERK HTRF assay in GP2d cell (Biological Example 2); conditions: GP2d, GP2d (KRAS G12D) cells, pERK HTRF; class symbols
Method in brief: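 Cells grown in DMEM with 10% FBS were exposed to compound for 60 min at 0.25% DMSO, using a 9-point half-log series starting at 1 μM or 100 nM. Lysates were then mixed with d2 and Eu cryptate antibodies for 4–24 h at room temperature, and pERK was read by HTRF.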

SW620 cells (KRAS G12V) = assay: Cell-based pERK HTRF assay in SW620 cell (Biological Example 4); conditions: Homo sapiens, SW-620, SW620 (KRAS G12V) cells, pERK HTRF; class symbols
Method in brief: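 SW620 seeded in RPMI/10% FBS, next day dosed 4 h (top 1 μM, half-log, 9 pts, 0.25% DMSO). Lysed, pERK by d2/Eu cryptate HTRF, 4–24 h RT, 615 nm read.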

T1 sequence (P01116 1-169 isoform P01116-2 G12D): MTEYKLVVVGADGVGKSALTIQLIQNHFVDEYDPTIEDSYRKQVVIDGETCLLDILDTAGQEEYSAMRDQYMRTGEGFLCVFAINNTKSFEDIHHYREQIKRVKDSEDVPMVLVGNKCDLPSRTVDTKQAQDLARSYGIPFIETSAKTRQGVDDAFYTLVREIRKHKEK

SMILES | IC50 [1] [µM] | IC50 [2] [µM] | IC50 [3] [µM] | IC50 [4] [µM] | IC50 (GP2d cells (KRAS G12D)) [µM] | IC50 (SW620 cells (KRAS G12V)) [µM]
CCN(c1nc(OC[C@@]23CCCN2C[C@H](F)C3)nc2c(F)c(-c3ccc(F)c4sc(N)c(C#N)c34)c(C(F)(F)F)cc12)[C@H]1CCN(C(=O)N2C[C@H]3C[C@@H]2CO3)C1 (atropisomer, axis not shown) [Compound 653] | < 0.1 | < 0.1 | < 0.1 | < 0.1 | < 0.1 | < 0.1
CCN(c1nc(OC[C@@]23CCCN2C[C@H](F)C3)nc2c(F)c(-c3ccc(F)c4sc(N)c(C#N)c34)c(C(F)(F)F)cc12)[C@H]1CCN(C(=O)N2C[C@@H]3C[C@H]2CO3)C1 (atropisomer, axis not shown) [Compound 654] | < 0.1 | < 0.1 | < 0.1 | < 0.1 | < 0.1 | < 0.1
[2H]C([2H])([2H])OC(=O)N1CC[C@H](N(CC)c2nc(OC[C@@]34CCCN3C[C@H](F)C4)nc3c(F)c(-c4ccc(F)c5sc(N)c(C#N)c45)c(C(F)(F)F)cc23)C1 (atropisomer, axis not shown) [Compound 659] | < 0.1 | < 0.1 | < 0.1 | < 0.1 | < 0.1 | < 0.1
CCN(c1nc(OC[C@@]23CCCN2C[C@H](F)C3)nc2c(F)c(-c3ccc(F)c4sc(N)c(C#N)c34)c(C(F)(F)F)cc12)[C@H]1C[C@H]2CCOC(=O)N2C1 (atropisomer, axis not shown) [Compound 664] | < 0.1 | < 0.1 | < 0.1 | < 0.1 | < 0.1 | < 0.1
CCN(c1nc(OC[C@@]23CCCN2C[C@H](F)C3)nc2c(F)c(-c3ccc(F)c4sc(N)c(C#N)c34)c(C(F)(F)F)cc12)[C@H]1C[C@@H]2CCOC(=O)N2C1 (atropisomer, axis not shown) [Compound 665] | 0.1 to 1 | 0.1 to 1 | 0.1 to 1 | 0.1 to 1 | < 0.1 | < 0.1
CCN(c1nc(OC[C@@]23CCCN2C[C@H](F)C3)nc2c(F)c(-c3ccc(F)c4sc(N)c(C#N)c34)c(C(F)(F)F)cc12)[C@H]1C[C@H]2CCN(C)C(=O)N2C1 (atropisomer, axis not shown) [Compound 666] | < 0.1 | < 0.1 | < 0.1 | < 0.1 | < 0.1 | < 0.1
CCN(c1nc(OC[C@@]23CCCN2C[C@H](F)C3)nc2c(F)c(-c3ccc(F)c4sc(N)c(C#N)c34)c(C(F)(F)F)cc12)[C@H]1CCN(C(=O)C=C(C)C)C1 (atropisomer, axis not shown) [Compound 675] | < 0.1 | < 0.1 | < 0.1 | < 0.1 | < 0.1 | < 0.1
C=C(F)C(=O)N1CC[C@H](N(CC)c2nc(OC[C@@]34CCCN3C[C@H](F)C4)nc3c(F)c(-c4ccc(F)c5sc(N)c(C#N)c45)c(C(F)(F)F)cc23)C1 (atropisomer, axis not shown) [Compound 676] | < 0.1 | < 0.1 | < 0.1 | < 0.1 | < 0.1 | < 0.1
C/C=C\C(=O)N1CC[C@H](N(CC)c2nc(OC[C@@]34CCCN3C[C@H](F)C4)nc3c(F)c(-c4ccc(F)c5sc(N)c(C#N)c45)c(C(F)(F)F)cc23)C1 (atropisomer, axis not shown) [Compound 677] | < 0.1 | < 0.1 | < 0.1 | < 0.1 | < 0.1 | < 0.1
CC#CC(=O)N1CC[C@H](N(CC)c2nc(OC[C@@]34CCCN3C[C@H](F)C4)nc3c(F)c(-c4ccc(F)c5sc(N)c(C#N)c45)c(C(F)(F)F)cc23)C1 (atropisomer, axis not shown) [Compound 679] | < 0.1 | < 0.1 | < 0.1 | < 0.1 | < 0.1 | < 0.1
